Experimental data as given in US6376517B1, “Pipecolic acid derivatives for vision and memory disorders” (GPI NIL Holdings, Inc., priority 1998, dated 2002).
Values belong to the molecule of their own block, whether it stands above or below them.

Key:
[1] = system: retinal ganglion cell axons; test: Protection of retinal ganglion cell axons from degeneration following optic nerve transection (Table E); format: in vivo, rat; settings: 14 days after optic nerve transection; ± SEM
Text: Efficacy of representative compounds from different immunophilin ligand series in protecting retinal ganglion cell axons from degeneration following optic nerve transection is set forth in Table E.

[2] = Clearance (Table E comments); format: in vitro ADME
[3] = system: retinal ganglion cells and optic nerve axons; test: Optic nerve transection vision loss model, 14 or 28 day treatment, sacrifice at 90 days (Example 2, Table A); format: in vivo, Sprague Dawley rats; settings: for Proximal optic nerve myclin basic protein Density, % recovery: ± SEM, % areal coverage of optic nerve cross section
Text: All eyes and optic nerves stumps were removed.

[4] = Morris watermaze spatial learning and memory in aged rodents (Example 15); format: in vivo, C57BL/6N-Nia mice; settings: aged impaired mice, 10 mg/kg daily, retention testing after 3 weeks of dosing
Text: The Morris watermaze is widely used for assessing spatial memory formation and retention in experimental animals. The test depends on the animal's ability to utilize spatial visual information in order to locate a submerged escape platform in a water tank. It is important that the tank itself be as devoid of specific visual features as possible—thus, it is always circular in shape, the sides are kept smooth and in uniform dull colors, and the water is rendered opaque with nontoxic watercolor pigment or powdered milk. This is to ensure that the animal navigates only by the use of more distant visual cues, or by the use of intra-maze cues specifically provided by the experimenter. The animals' path, speed, and swim time are tracked with a ceiling camera for later computerized analysis. Over the course of several successive trials, spatial learning can therefore be defined as a drop of distance swum, or time elapsed, from placement in the tank until escape onto the invisible platform. The procedure involved using three-month old (young) and 18-19 month old male C57BL/6N-Nia (aged) mice which habituated to the well known and conventional Morris watermaze during a 4 trials/day, 3-4 day visible platform training phase. […] Swim Distances (cm) were analyzed in a 7×5 ANOVA including Groups and Blocks (1-5) as factors in the analysis, treating Blocks as a repeated measure.

retinal ganglion cells = test: Optic nerve transection, 28 days treatment, sacrifice at 90 days (Example 13); format: in vivo, Sprague Dawley rats; settings: 10 mg/kg/day s.c. for 28 days, 90 days after transection
Text: Transection of the mammalian optic nerve results in a brief period of abortive regeneration, but the majority of axotomized neurons die and the axons from many persisting ganglion cells die back beyond the optic nerve head.

[5] = system: retinal ganglion cells, optic nerve axons and myelin; test: Retinal ischemia (intraocular pressure above arterial blood pressure), examined 28 days later; format: in vivo, adult rats
Text: Retinal ganglion cells were retrogradely labeled in adult rats by bilateral injection of fluorogold in their lateral geniculate nuclei. Labeled ganglion cells in the normal rat retina appear as white profiles against the dark background (FIG. 1A). Complete retinal ischemia was produced by infusing normal saline solution into the retinal vitreous cavity of each eye until the intraocular pressure exceeded arterial blood pressure. 28 days after the ischemic episode extensive degeneration of retinal ganglion cell was evidenced by massive reduction in the density of fluorogold labeled cells (FIG. 1B).

FKBP12 = FKBP12 (Homo sapiens, UniProt P62942); test: Ki Test Procedure: inhibition of peptidyl-prolyl isomerase (rotamase) activity, chymotrypsin-coupled assay; format: biochemical; settings: Table E comments
Chain of FKBP12 (P62942 whole entry, species assumed): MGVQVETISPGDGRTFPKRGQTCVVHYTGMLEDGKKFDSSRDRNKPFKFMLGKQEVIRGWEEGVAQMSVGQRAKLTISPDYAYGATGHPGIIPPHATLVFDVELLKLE

Compound: O=C(SCCCc1ccccc1)[C@@H]1CCCN1C(=O)NC12CC3CC(CC(C3)C1)C2 [B]
RT97 + RGC axon density 14 days after On transection (% ON axons rescued) [1]: 100.0% ± 5.2% SEM

Clearance [2]: 41.8 µL/min
Compound: CCC(C)(C)C(=O)C(=O)N1CCCCC1C(=O)OC(CCc1ccccc1)CCc1ccccc1 (centres unmarked) [E]

Compound: CCC(C)(C)C(=O)C(=O)N1CCC[C@H]1C(=O)OCCCc1cccnc1 [GPI 1046]
RGC Counts ([3]; 14 days treatment, 10 mg/kg/day sc, 90 days after transection, mean density ± SEM of Fluoro-gold labeled RGC in 400 μm × 400 μm gridfields): 49 ± 5.3
Distal optic nerve shrinkage ([3]; 14 days treatment, cross sectional area compared to sham control): 33% shrinkage
Distal optic nerve myclin basic protein Density, loss ([3]; 14 days treatment, cross sectional area multiplied by myelin density): 47% loss
Proximal optic nerve myclin basic protein Density, % recovery ([3]; 14 days treatment): 1.6 ± 3.0 SEM % recovery
density of large, medium and small caliber optic nerve axons ([3]; 28 day treatment): significant increase
ON Axon density ([3]; 28 days treatment, 90 days after transection, RT97 labeled axons in 200 μm × 200 μm region, mean ± SEM): 1526 ± 120
Distal optic nerve, less shrinkage ([3]; 28 days treatment, cross sectional area compared to sham control): 56% less shrinkage*
Proximal optic nerve myclin basic protein Density, % recovery ([3]; 28 days treatment): 70 ± 6.3 SEM % recovery
spatial memory performance (Morris watermaze retention, swim distance) [4]: significantly enhanced spatial memory performance
ganglion cell population spared (retinal ganglion cells): 25%
preservation of axons in the proximal stump of the transected nerve (retinal ganglion cells; RT97 neurofilament): preserved the axons of virtually all protected neurons
protection of retinal ganglion cells (fluorogold labeled) after retinal ischemia ([5]; 10 mg/kg s.c. 1 hour prior to ischemia and 10 mg/kg/day for the next four days, 28 days after ischemia): noticeable protection of a large proportion of the vulnerable ganglion cell population
density of degenerating myelin figures after retinal ischemia ([5]; 28 days after 1 hour retinal ischemic episode): dramatically decreased the density of degenerating myelin figures
protection of optic nerve axons after retinal ischemia ([5]; 28 days after 1 hour retinal ischemic episode, toluidine blue staining): protected the majority of optic nerve axons from degeneration

Ki (FKBP12): > 10 µM
Compound: C=C(C(=O)N1CCCC[C@H]1C(=O)O)C(C)(C)CC [G]
RT97 + RGC axon density 14 days after On transection (% ON axons rescued) [1]: 34.0% ± 4.8% SEM

Compound: C=C(C(=O)N1CCCC[C@H]1C(N)=O)C(C)(C)CC [H]
RT97 + RGC axon density 14 days after On transection (% ON axons rescued) [1]: 30.3% ± 8.0% SEM

Ki (FKBP12): > 7.74 µM
Clearance [2]: 5.2 µL/min
Compound: C=C(C(=O)N1CCC[C@H]1C(=O)O)C(C)(C)CC [L]
RT97 + RGC axon density 14 days after On transection (% ON axons rescued) [1]: 7.8% ± 3.0% SEM

Compound: CCC(C)(C)C(=O)C(=O)N1CCC[C@H]1C(=O)SCCC(c1ccccc1)c1ccccc1 [M]
RT97 + RGC axon density 14 days after On transection (% ON axons rescued) [1]: −6.3% ± 3.9% SEM
